Assay results reported in patent US10160755B2 (Plexxikon Inc., priority 2015, dated 2018).
One block for each compound: values may come before it.

How the values were obtained:
FLT3-ITD = molecular target: T1, FLT3-ITD (Homo sapiens, UniProt P36888); assay: FLT3-ITD biochemical kinase assay (AlphaScreen)
T1 construct: FLT3-ITD; Invitrogen #PV6190
T1 sequence (P36888 1-993): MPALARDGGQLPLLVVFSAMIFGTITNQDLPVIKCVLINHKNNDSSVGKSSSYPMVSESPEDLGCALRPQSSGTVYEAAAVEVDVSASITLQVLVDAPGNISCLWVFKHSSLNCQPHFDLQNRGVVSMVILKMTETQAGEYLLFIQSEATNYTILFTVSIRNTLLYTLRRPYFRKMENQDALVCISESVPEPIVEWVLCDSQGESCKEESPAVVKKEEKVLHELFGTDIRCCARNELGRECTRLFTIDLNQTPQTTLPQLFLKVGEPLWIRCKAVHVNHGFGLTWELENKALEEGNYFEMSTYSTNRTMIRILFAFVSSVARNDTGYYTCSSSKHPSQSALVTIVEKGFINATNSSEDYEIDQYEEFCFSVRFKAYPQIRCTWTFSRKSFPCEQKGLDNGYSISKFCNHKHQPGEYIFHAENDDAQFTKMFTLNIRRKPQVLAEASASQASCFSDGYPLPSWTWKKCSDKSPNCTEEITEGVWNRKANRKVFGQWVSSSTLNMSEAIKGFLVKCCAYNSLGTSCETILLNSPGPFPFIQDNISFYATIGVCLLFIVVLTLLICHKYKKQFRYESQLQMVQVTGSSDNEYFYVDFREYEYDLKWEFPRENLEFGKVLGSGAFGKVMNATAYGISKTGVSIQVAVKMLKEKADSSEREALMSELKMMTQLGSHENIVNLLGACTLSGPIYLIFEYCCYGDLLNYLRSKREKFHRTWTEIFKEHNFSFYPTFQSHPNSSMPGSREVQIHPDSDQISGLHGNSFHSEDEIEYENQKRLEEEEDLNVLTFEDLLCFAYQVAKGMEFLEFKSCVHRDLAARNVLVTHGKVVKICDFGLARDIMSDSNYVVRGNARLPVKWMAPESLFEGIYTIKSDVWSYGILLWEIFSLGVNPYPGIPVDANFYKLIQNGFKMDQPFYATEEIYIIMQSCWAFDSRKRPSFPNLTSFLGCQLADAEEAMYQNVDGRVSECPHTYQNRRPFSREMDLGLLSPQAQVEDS
In short: (§1)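 AlphaScreen read-out of tyrosine phosphorylation of a 30 nM biotinylated poly(Glu4-Tyr) substrate, captured on streptavidin donor and PY20 acceptor beads at room temperature. ATP for IC50 work was 100 μM with FLT3-ITD and 10 μM with FLT3-D835Y; reduced 580 nm proximity signal reflects kinase inhibition.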

FLT3-D835Y = molecular target: T2, FLT3-D835Y (Homo sapiens, UniProt P36888, D835Y); assay: FLT3-D835Y biochemical kinase assay (AlphaScreen)
T2 construct: purchased Invitrogen PV3967
T2 sequence (P36888 27-993 D835Y): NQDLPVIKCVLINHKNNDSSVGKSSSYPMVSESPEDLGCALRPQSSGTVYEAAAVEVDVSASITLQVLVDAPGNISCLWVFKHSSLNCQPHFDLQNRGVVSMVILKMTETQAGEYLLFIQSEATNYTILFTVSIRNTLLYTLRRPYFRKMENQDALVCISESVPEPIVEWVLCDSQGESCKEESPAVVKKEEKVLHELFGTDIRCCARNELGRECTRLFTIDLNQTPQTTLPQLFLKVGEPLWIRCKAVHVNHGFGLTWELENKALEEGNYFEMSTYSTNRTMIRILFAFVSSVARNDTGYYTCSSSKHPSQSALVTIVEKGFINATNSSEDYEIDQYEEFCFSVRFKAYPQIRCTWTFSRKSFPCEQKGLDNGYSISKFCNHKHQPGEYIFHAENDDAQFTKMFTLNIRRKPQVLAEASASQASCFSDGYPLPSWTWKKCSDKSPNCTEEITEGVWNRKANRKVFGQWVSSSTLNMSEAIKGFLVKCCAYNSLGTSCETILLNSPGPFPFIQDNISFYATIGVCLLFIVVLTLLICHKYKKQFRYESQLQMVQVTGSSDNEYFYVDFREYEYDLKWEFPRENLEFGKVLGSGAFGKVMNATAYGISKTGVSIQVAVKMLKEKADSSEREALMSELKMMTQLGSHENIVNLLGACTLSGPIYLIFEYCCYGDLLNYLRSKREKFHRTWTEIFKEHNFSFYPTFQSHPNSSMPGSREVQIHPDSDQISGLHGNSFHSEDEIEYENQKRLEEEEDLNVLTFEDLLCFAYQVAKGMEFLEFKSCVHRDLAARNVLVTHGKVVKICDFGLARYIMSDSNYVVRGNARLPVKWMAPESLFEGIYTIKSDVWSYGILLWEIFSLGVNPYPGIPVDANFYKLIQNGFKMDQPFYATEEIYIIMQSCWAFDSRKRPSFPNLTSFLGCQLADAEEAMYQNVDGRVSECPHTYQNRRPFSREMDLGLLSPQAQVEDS
In short: as §1

Compound: CC(C)(C)n1cnc2ccc(-c3c[nH]c4ncc(C#Cc5cccc(OC(F)(F)F)c5)nc34)cc21 [P-249, 7-(3-tert-butylbenzimidazol-5-yl)-2-[2-[3-(trifluoromethoxy)phenyl]ethynyl]-5H-pyrrolo[2,3-b]pyrazine]
IC50 (FLT3-ITD): 0.0001 to 1 µM | IC50 (FLT3-D835Y): 0.0001 to 1 µM

Compound: O=S1(=O)CCCCN1c1cccc(-c2cnc3[nH]cc(-c4ccc5ncn(C6CCCNC6)c5c4)c3n2)c1 (stereo not shown) [P-253, 2-[3-[7-[3-(3-piperidyl)benzimidazol-5-yl]-5H-pyrrolo[2,3-b]pyrazin-2-yl]phenyl]thiazinane 1,1-dioxide]
IC50 (FLT3-ITD): 0.0001 to 1 µM | IC50 (FLT3-D835Y): 0.0001 to 1 µM

Compound: CC(C)(C)n1cnc2ccc(-c3c[nH]c4ncc(-c5cccc(N6CCCS6(=O)=O)c5)nc34)cc21 [P-231, 2-[3-[7-(3-tert-butylbenzimidazol-5-yl)-5H-pyrrolo[2,3-b]pyrazin-2-yl]phenyl]-1,2-thiazolidine 1,1-dioxide]
IC50 (FLT3-ITD): 0.0001 to 1 µM | IC50 (FLT3-D835Y): 0.0001 to 1 µM

Compound: COc1cc(-c2cnc3[nH]cc(-c4ccc5ncn([C@@H]6CCCNC6)c5c4)c3n2)ccn1 [P-254, 2-(2-methoxy-4-pyridyl)-7-[3-[(3R)-3-piperidyl]benzimidazol-5-yl]-5H-pyrrolo[2,3-b]pyrazine]
IC50 (FLT3-ITD): 0.0001 to 1 µM | IC50 (FLT3-D835Y): 0.0001 to 1 µM

Compound: COc1cnc2[nH]cc(-c3ccc4ncn(Cc5ccc(F)cc5)c4c3)c2c1 [P-110, 1-[(4-fluorophenyl)methyl]-6-(5-methoxy-1H-pyrrolo[2,3-b]pyridin-3-yl)benzimidazole]
IC50 (FLT3-ITD): 0.0001 to 1 µM | IC50 (FLT3-D835Y): 0.0001 to 1 µM

Compound: O=S1(=O)CCCCN1c1cccc(-c2cnc3[nH]cc(-c4ccc5ncn(C6CCCNC6)c5c4)c3c2)c1 (stereo not shown) [P-224, 2-[3-[3-[3-(3-piperidyl)benzimidazol-5-yl]-1H-pyrrolo[2,3-b]pyridin-5-yl]phenyl]thiazinane 1,1-dioxide]
IC50 (FLT3-ITD): 0.0001 to 1 µM | IC50 (FLT3-D835Y): 0.0001 to 1 µM

Compound: COc1cnc2[nH]cc(-c3ccc4ncn(-c5cccc(C#N)c5)c4c3)c2c1 [P-135, 3-[6-(5-methoxy-1H-pyrrolo[2,3-b]pyridin-3-yl)benzimidazol-1-yl]benzonitrile]
IC50 (FLT3-ITD): 0.0001 to 1 µM | IC50 (FLT3-D835Y): 0.0001 to 1 µM

Compound: c1cc(-c2cnc3[nH]cc(-c4ccc5ncn(C6CCCNC6)c5c4)c3c2)cc(N2CCOCC2)n1 (stereo not shown) [P-223, 4-[4-[3-[3-(3-piperidyl)benzimidazol-5-yl]-1H-pyrrolo[2,3-b]pyridin-5-yl]-2-pyridyl]morpholine]
IC50 (FLT3-ITD): 0.0001 to 1 µM | IC50 (FLT3-D835Y): 0.0001 to 1 µM

Compound: COc1ncc(-c2cnc3[nH]cc(-c4ccc5ncn(C6CCCNC6)c5c4)c3n2)cn1 (stereo not shown) [P-264, 2-(2-methoxypyrimidin-5-yl)-7-[3-(3-piperidyl)benzimidazol-5-yl]-5H-pyrrolo[2,3-b]pyrazine]
IC50 (FLT3-ITD): 0.0001 to 1 µM | IC50 (FLT3-D835Y): 0.0001 to 1 µM

Compound: COc1ncc(-c2cnc3[nH]cc(-c4ccc5ncn(C(C)C)c5c4)c3c2)cn1 [P-269, 1-isopropyl-6-[5-(2-methoxypyrimidin-5-yl)-1H-pyrrolo[2,3-b]pyridin-3-yl]benzimidazole]
IC50 (FLT3-ITD): 0.0001 to 1 µM | IC50 (FLT3-D835Y): 0.0001 to 1 µM

Compound: C(#Cc1cnc2[nH]cc(-c3ccc4ncn(C5CCCNC5)c4c3)c2n1)c1ccccc1 (stereo not shown) [P-248, 2-(2-phenylethynyl)-7-[3-(3-piperidyl)benzimidazol-5-yl]-5H-pyrrolo[2,3-b]pyrazine]
IC50 (FLT3-ITD): 0.0001 to 1 µM | IC50 (FLT3-D835Y): 0.0001 to 1 µM

Compound: CC(C)S(=O)(=O)Nc1cccc(-c2cnc3[nH]cc(-c4ccc5ncn(C6CCCNC6)c5c4)c3c2)c1 (stereo not shown) [P-215, N-[3-[3-[3-(3-piperidyl)benzimidazol-5-yl]-1H-pyrrolo[2,3-b]pyridin-5-yl]phenyl]propane-2-sulfonamide]
IC50 (FLT3-ITD): 0.0001 to 1 µM | IC50 (FLT3-D835Y): 0.0001 to 1 µM

Compound: Cn1cnc2ccc(-c3c[nH]c4ncc(-c5cnn(CC(F)(F)F)c5)cc34)cc21 [P-175, 1-methyl-6-[5-[1-(2,2,2-trifluoroethyl)pyrazol-4-yl]-1H-pyrrolo[2,3-b]pyridin-3-yl]benzimidazole]
IC50 (FLT3-ITD): 0.0001 to 1 µM | IC50 (FLT3-D835Y): 0.0001 to 1 µM

Compound: N#Cc1cccc(NC(=O)c2cnc3[nH]cc(-c4ccc5ncn(C6CCCNC6)c5c4)c3c2)c1 (stereo not shown) [P-219, N-(3-cyanophenyl)-3-(1-(piperidin-3-yl)-1H-benzo[d]imidazol-6-yl)-1H-pyrrolo[2,3-b]pyridine-5-carboxamide]
IC50 (FLT3-ITD): 0.0001 to 1 µM | IC50 (FLT3-D835Y): 0.0001 to 1 µM

Compound: O=S(=O)(c1cccc(-c2cnc3[nH]cc(-c4ccc5ncn(C6CCCNC6)c5c4)c3n2)c1)N1CCCC1 (stereo not shown) [P-237, 7-[3-(3-piperidyl)benzimidazol-5-yl]-2-(3-pyrrolidin-1-ylsulfonylphenyl)-5H-pyrrolo[2,3-b]pyrazine]
IC50 (FLT3-ITD): 0.0001 to 1 µM | IC50 (FLT3-D835Y): 0.0001 to 1 µM

The next lines start with the values.

IC50 (FLT3-ITD): 0.0001 to 1 µM | IC50 (FLT3-D835Y): 0.0001 to 1 µM
Compound: CC(C)(C)n1cnc2ccc(-c3c[nH]c4ncc(C#Cc5cccc(C#N)c5)cc34)cc21 [P-242, 3-[2-[3-(3-tert-butylbenzimidazol-5-yl)-1H-pyrrolo[2,3-b]pyridin-5-yl]ethynyl]benzonitrile]

IC50 (FLT3-ITD): 0.0001 to 1 µM | IC50 (FLT3-D835Y): 0.0001 to 1 µM
Compound: CC(C)(C)n1cnc2ccc(-c3c[nH]c4ncc(C(=O)Nc5cccc(C#N)c5)cc34)cc21 [P-218, 3-(3-tert-butylbenzimidazol-5-yl)-N-(3-cyanophenyl)-1H-pyrrolo[2,3-b]pyridine-5-carboxamide]

IC50 (FLT3-ITD): 0.0001 to 1 µM | IC50 (FLT3-D835Y): 0.0001 to 1 µM
Compound: COc1cnc2[nH]cc(-c3ccc4ncn(-c5cccc(F)c5)c4c3)c2c1 [P-128, 1-(3-fluorophenyl)-6-(5-methoxy-1H-pyrrolo[2,3-b]pyridin-3-yl)benzimidazole]

IC50 (FLT3-ITD): 0.0001 to 1 µM | IC50 (FLT3-D835Y): 0.0001 to 1 µM
Compound: CC(C)S(=O)(=O)Nc1cccc(-c2cnc3[nH]cc(-c4ccc5ncn(C(C)(C)C)c5c4)c3n2)c1 [P-232, N-[3-[7-(3-tert-butylbenzimidazol-5-yl)-5H-pyrrolo[2,3-b]pyrazin-2-yl]phenyl]propane-2-sulfonamide]

IC50 (FLT3-ITD): 0.0001 to 1 µM | IC50 (FLT3-D835Y): 0.0001 to 1 µM
Compound: CC(C)(CO)n1cnc2ccc(-c3c[nH]c4ncc(-c5cccc(NS(C)(=O)=O)c5)nc34)cc21 [P-115, N-[3-[7-[3-(2-hydroxy-1,1-dimethyl-ethyl)benzimidazol-5-yl]-5H-pyrrolo[2,3-b]pyrazin-2-yl]phenyl]methanesulfonamide]

IC50 (FLT3-ITD): 0.0001 to 1 µM | IC50 (FLT3-D835Y): 0.0001 to 1 µM
Compound: N#Cc1cccc(C(=O)Nc2cnc3[nH]cc(-c4ccc5ncn(C6CCCNC6)c5c4)c3c2)c1 (stereo not shown) [P-236, 3-cyano-N-[3-[3-(3-piperidyl)benzimidazol-5-yl]-1H-pyrrolo[2,3-b]pyridin-5-yl]benzamide]

IC50 (FLT3-ITD): 0.0001 to 1 µM | IC50 (FLT3-D835Y): 0.0001 to 1 µM
Compound: COc1cc(C(=O)Nc2cnc3[nH]cc(-c4ccc5ncn(C(C)(C)C)c5c4)c3c2)ccn1 [P-245, N-[3-(3-tert-butylbenzimidazol-5-yl)-1H-pyrrolo[2,3-b]pyridin-5-yl]-2-methoxy-pyridine-4-carboxamide]

IC50 (FLT3-ITD): 0.0001 to 1 µM | IC50 (FLT3-D835Y): 0.0001 to 1 µM
Compound: CC(C)(C)n1cnc2ccc(-c3c[nH]c4ncc(-c5ccc(F)c(C#N)c5)nc34)cc21 [P-230, 5-[7-(3-tert-butylbenzimidazol-5-yl)-5H-pyrrolo[2,3-b]pyrazin-2-yl]-2-fluoro-benzonitrile]
